US20240197702A1, “ANTISEPTIC-ANTIBIOTIC GUMBOS EFFECTIVE AGAINST GRAM-NEGATIVE PATHOGENS” (priority 2020, published 2024)
In brackets after ≈: the same amount, converted by molar mass. Where two headings read alike, the source gives them in different places.

Columns and labels:
[1] = test system: N. gonorrhoeae clinical isolates; assay: Kirby-Bauer disc diffusion against N. gonorrhoeae clinical isolates; type: cell-based, Neisseria gonorrhoeae; details: three clinical isolates, 20-24 h
Method: (§1) Antimicrobial susceptibility testing: Kirby-Bauer disc diffusion susceptibility tests were used to determine zones of inhibition (ZOIs) for N. gonorrhoeae (ATCC 49226) and three clinical isolates obtained from Louisiana State University Health Sciences Center New Orleans HIV Outpatient Clinic. Kirby-Bauer disc diffusion is one of the CDC's preferred methods of testing the susceptibility of N. gonorrhoeae. Testing was performed according to CLSI recommended procedures. In this susceptibility test, 6 mm diameter blank paper discs were impregnated with known quantities of antimicrobial drug followed by evaporation of solvent; however, ceftriaxone, azithromycin and doxycycline antimicrobial susceptibility discs were purchased from Thermo Fisher Scientific. Impregnated discs were placed onto prepared nutrient agar plates that were inoculated with N. gonorrhoeae to give a confluent lawn of growth. Suspensions of these various strains were prepared in accordance with a 1.0 McFarland standard. Inoculated agar plates were incubated for 20-24 h at 37° C. in a 5% CO2 atmosphere.
(§2) Blank discs were loaded with 50 nmol of GUMBOS, respective constituent compounds and equivalent stoichiometric unreacted mixtures of octenidine and carbenicillin that are equimolar to the purchased ceftriaxone discs (Oxoid™, Thermo Fisher). After 20-24 h incubation, diameters of ZOIs were measured using a ruler. […] Antibacterial activity was improved for octenidine when chloride ions were exchanged for the antibiotic. […] This effect was not seen, however, for an unreacted mixture of the two drugs for either N. gonorrhoeae (ATCC 49226) or clinical isolates. The ZOIs of octenidine/carbenicillin were also larger than or equal to azithromycin and doxycycline ZOIs for N. gonorrhoeae (ATCC 49226). […] This is significant as resistance rates for azithromycin have increased worldwide. Among 57 countries reporting on azithromycin susceptibility, 28 (49%) reported>5% resistance. […] Ceftriaxone produced large ZOIs as the clinical population still remains susceptible to it in the USA (only 0.2% of isolates had elevated resistance to ceftriaxone in 2017).

[2] = test system: N. gonorrhoeae ATCC 49226; assay: Kirby-Bauer disc diffusion against N. gonorrhoeae ATCC 49226; type: cell-based, Neisseria gonorrhoeae; details: for Zone size, mm (±SD): ATCC 49226, disc diffusion, 20-24 h; for Zone sizes against CLSI susceptibility range: N. gonorrhoeae (ATCC 49226) and three clinical isolates
Method: as §1, §2

HeLa cells = assay: MTT cytotoxicity assay of ceftriaxone-based GUMBOS; type: cell-based; details: for IC50: read-out: Acute cytotoxicity (IC50); for Relative cell toxicity (in words): comparison with mixture or parent antiseptic
Method: Cytotoxicity Assay of GUMBOS: Cytotoxicity of GUMBOS, unreacted mixtures, and antiseptics towards healthy cells were evaluated using the MTT assay, a colorimetric dye assay, according to manufacturer's instructions. […] Stock solutions of antimicrobial agents in cell medium (1% MeOH) were diluted to a known working concentration, doubly diluted, and transferred to seeded cells. […] Cells treated with only DMEM were used as a negative control. After incubation, 15 μL of MTT were added to each well and cells were further incubated for an hour. Sodium dodecyl sulfate dimethylformamide solution was added after this additional incubation time in order to dissolve the purple formazan crystals. Cell viability was quantified at 570 nm using a microplate spectrophotometer (Eppendorf PlateReader AF2200, Hauppauge, NY). Cell viability as a percentage was determined as the ratio between treated cells and untreated (control) cells taken as 100%.

[3] = test system: N. gonorrhoeae ATCC 49226; assay: MIC by micro-broth dilution against N. gonorrhoeae ATCC 49226; type: cell-based, Neisseria gonorrhoeae; details: for MIC: ATCC 49226, micro-broth dilution, 20-24 hours
Method: (§3) Minimum Inhibitory Concentrations of GUMBOS against N. gonorrhoeae: Clinical isolates of N. gonorrhoeae and N. gonorrhoeae ATCC 49226 were obtained from Louisiana State University Health Sciences Center New Orleans HIV Outpatient Clinic. Minimum inhibitory concentrations (MICs) of GUMBOS, constituent parent drugs, azithromycin, and unreacted mixtures were determined using micro-broth dilution in 96-well plates. […] Stock solutions were diluted to a known working concentration and 100 μL were added to the first row of the plate. For susceptibility testing of N. gonorrhoeae, media was prepared according to methods reported by Wade and […]. Euro. Microbiol. Soc. Microbiol. […] This liquid medium allowed dense growth of N. gonorrhoeae for use in broth dilution tests. Protein-free liquid media (100 μL) were added to each well and two-fold dilutions were performed. The antibiotic containing wells were inoculated with an equal volume of bacterial inoculum matching a 0.5 McFarland standard. […] The lowest concentration of antibiotic that prevents growth is the MIC.

[4] = test system: clinical isolates of N. gonorrhoeae; assay: MIC by micro-broth dilution against N. gonorrhoeae clinical isolates; type: cell-based, Neisseria gonorrhoeae; details: for MIC: four clinical isolates, micro-broth dilution, 20-24 hours
Method: as §3

[5] = test system: Carbapenem-resistant clinical isolates of Escherichia coli; assay: MIC by micro-broth dilution against carbapenem-resistant E. coli; type: cell-based; details: MH broth
Method: (§4) Minimum Inhibitory Concentrations of GUMBOS against N. gonorrhoeae: Clinical isolates of N. gonorrhoeae and N. gonorrhoeae ATCC 49226 were obtained from Louisiana State University Health Sciences Center New Orleans HIV Outpatient Clinic. Minimum inhibitory concentrations (MICs) of GUMBOS, constituent parent drugs, azithromycin, and unreacted mixtures were determined using micro-broth dilution in 96-well plates. Stock solutions of 1 mM were prepared in deionized water (1% DMSO). Stock solutions were diluted to a known working concentration and 100 μL were added to the first row of the plate. For susceptibility testing of N. gonorrhoeae, media was prepared according to methods reported by Wade and Graver (Fed. Euro. Microbiol. Soc. Microbiol. Letts (2007), 273 (1), 35-37). This liquid medium allowed dense growth of N. gonorrhoeae for use in broth dilution tests. Protein-free liquid media (100 μL) were added to each well and two-fold dilutions were performed. The antibiotic containing wells were inoculated with an equal volume of bacterial inoculum matching a 0.5 McFarland standard. Microtiter plates were incubated for 20-24 hours at 37° C. with 5% CO2 and examined for visible signs of bacterial growth as evidenced by turbidity. The lowest concentration of antibiotic that prevents growth is the MIC.
(§5) Minimum Inhibitory Concentrations of GUMBOS against Carbapenem-resistant Enterobacteriaceae: GUMBOS, ceftriaxone, and azithromycin were tested against extended spectrum beta-lactamase (ESBL)-producing gram negative bacteria. Carbapenem-resistant clinical isolates of Escherichia coli, Enterobacter cloacae, and Klebsiella pneumoniae were obtained from Louisiana State University (LSU) Health Sciences Center New Orleans HIV Outpatient Clinic. Minimum inhibitory concentrations were determined as described above using micro-broth dilutions with two minor adjustments, cation-adjusted Mueller Hinton (MH) broth was used instead and stock solutions of test compounds were prepared directly in MH broth.

[6] = test system: Carbapenem-resistant clinical isolate of Enterobacter cloacae; assay: MIC by micro-broth dilution against carbapenem-resistant E. cloacae; type: cell-based; details: CRE E. cloacae, MH broth
Method: as §4, §5

[7] = test system: Carbapenem-resistant clinical isolate of Klebsiella pneumoniae; assay: MIC by micro-broth dilution against carbapenem-resistant K. pneumoniae; type: cell-based; details: CRE K. pneumoniae, MH broth
Method: as §4, §5

[8] = Octanol-water partition coefficient (Log P), shake-flask method
Method: Octanol-Water Partition Coefficient: To determine the relative lipophilic strength of GUMBOS, the logarithmic octanol-water partition coefficient (Log P) was measured. It is a ratiometric parameter based on the concentration of therapeutic agent in either phase of the two-phase system (octanol and water) when at equilibrium (Equation 1). Specifically, a shake-flask method was used. To prevent minimal solvent miscibility, an equal amount of water and 1-octanol were mixed together for 24 hours and subsequently allowed to separate. The octanol layer was used to generate a calibration curve from the absorbance of the compound at various concentrations. An equal volume of saturated water was added to a flask of known concentration (Ci) chosen from the calibration curve. This mixture was stirred for a minimum of two hours and left undisturbed to allow the two solvent layers to separate. The absorbance of the therapeutic salt in the octanol layer was determined (Co). Thus, the concentration of therapeutic agent in water was determined using Ci−Co=Cw.
However, octanol-water partition coefficients were measured for GUMBOS using the shake flask method to further explore the lipophilic properties of these compounds.

Compound	Zone size, mm (±SD) [1] [mm]	Zone size, mm (±SD) [2] [mm]	IC50 (HeLa cells; 15 min) [µM]	IC50 (HeLa cells; 60 min) [µM]	MIC [3] [µM]	MIC [4] [µM]	MIC ([5]; CRE E. Coli (Isolate 2)) [µM]	MIC ([5]; CRE E. coli (Isolate 1)) [µM]	MIC [6] [µM]	MIC [7] [µM]	other results
C[C@H]1c2cccc(O)c2C(=O)C2=C(O)[C@]3(O)C(=O)C(C(N)=O)=C(O)[C@@H](N(C)C)[C@@H]3[C@@H](O)[C@@H]21 [Doxycycline, doxycycline]	28 ± 7	35 ± 0.6									
CC(=O)O.CC(=O)O.NC(=N\CCCCCC/N=C(N)/N=C(\N)Nc1ccc(Cl)cc1)/N=C(\N)Nc1ccc(Cl)cc1 [Chlorhexidine diacetate, chlorhexidine diacetate]			80.8 ± 4.27	24.6 ± 0.66	3.1	4.7 ± 1.8					
CC[C@H]1OC(=O)[C@H](C)[C@@H](O[C@H]2C[C@@](C)(OC)[C@@H](O)[C@H](C)O2)[C@H](C)[C@@H](O[C@@H]2O[C@H](C)C[C@H](N(C)C)[C@H]2O)[C@](C)(O)C[C@@H](C)CN(C)[C@H](C)[C@@H](O)[C@]1(C)O [Azithromycin, azithromycin]	36 ± 4	40 ± 1									MIC ([5]; Escherichia coli, CRE E. Coli (Isolate 2)): 250 µM (≈ 187 µg/mL); MIC ([5]; Escherichia coli, CRE E. coli (Isolate 1)): > 500 µM; MIC ([6]; Enterobacter cloacae): 250 µM (≈ 187 µg/mL); MIC ([3]; Neisseria gonorrhoeae, ATCC49226): 0.8 µM (≈ 0.599 µg/mL); Zone sizes against CLSI susceptibility range [2]: within the susceptibility range set by CLSI; MIC ([7]; Klebsiella pneumoniae): 250 µM (≈ 187 µg/mL); Concentration required for growth inhibition, fold greater than GUMBOS ([4]; N. gonorrhoeae clinical isolates): six to nine; MIC ([4]; Neisseria gonorrhoeae, read-out: MIC): 0.6 ± 0.2 µM (≈ 0.449 µg/mL)
CC1(C)S[C@@H]2[C@H](NC(=O)C(C(=O)[O-])c3ccccc3)C(=O)N2[C@H]1C(=O)[O-].[Na+].[Na+] (some centres unmarked) [Na2 CAR, disodium carbenicillin]	28 ± 3	27 ± 3									
CCCCCCCCNc1cc[n+](CCCCCCCCCC[n+]2ccc(NCCCCCCCC)cc2)cc1.CON=C(C(=O)NC1C(=O)N2C(C(=O)[O-])=C(CSc3nc(=O)c([O-])nn3C)CSC12)c1csc(N)n1 [[OCT][CRO], octenidine-ceftriaxone]			66.5 ± 8.24	43.3 ± 5.98	0.08	0.09 ± 0.07	25	50	25	25	Relative cell toxicity (in words) (HeLa cells): significantly less toxic than octenidine dihydrochloride; Relative cell toxicity (in words) (HeLa cells; listed as octenidine-ceftriaxone): indifferent toxicity to its unreacted, stoichiometric mixture of parent compounds; Log P [8]: 0.3 (±0.2)
CON=C(C(=O)NC1C(=O)N2C(C(=O)O)=C(CSc3nc(=O)c(O)nn3C)CSC12)c1csc(N)n1.N=C(NCCCCCCNC(=N)NC(=N)Nc1ccc(Cl)cc1)NC(=N)Nc1ccc(Cl)cc1 (centres unmarked) [[CHX][CRO], chlorhexidine-ceftriaxone]			84.3 ± 5.87	45.5 ± 1.42	0.08	0.06 ± 0.02	12.5	25	50	50	Relative cell toxicity (in words) (HeLa cells): only slightly less toxic; Relative cell toxicity (in words) (HeLa cells; listed as Chlorhexidine-ceftriaxone): significantly less toxic than its unreacted, stoichiometric mixture; Log P [8]: 0.2 (±0.1)
CO/N=C(\C(=O)N[C@@H]1C(=O)N2C(C(=O)[O-])=C(CSc3nc(=O)c([O-])nn3C)CS[C@H]12)c1csc(N)n1.[Na+].[Na+] [Ceftriaxone, Ceftriaxone disodium salt]	49 ± 4	51 ± 1			0.04		>500	>500	>500	>500	Concentration as compared to GUMBOS ([3]; N. gonorrhoeae ATCC 49226): half-fold decrease; Zone sizes against CLSI susceptibility range [2]: within the susceptibility range set by CLSI; MIC ([4]; read-out: MIC): 0.02 µM
